Laboratory results: ChEMBL document CHEMBL1201862, “PubChem BioAssay data set” (2004)
Calls of active or inactive are those of the source.

How the values were obtained:
[1] = NIH-3T3 fibroblast cytotoxicity, dose response, cytotoxicity control, cell-based, fluorescence, Alamar Blue, secondary assay (AID 2327); type: functional;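 note: NIH-3T3 mouse fibroblasts cultured with fluconazole at 8 µg/mL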
[2] = fluconazole-exposed Candida albicans growth modulators – fluorescence, retest, confirmation (AID 2467); type: functional, cell-based
[3] = Luminescence Cell-Based Dose Response HTS to Identify Activators of Luciferase Translation or Activity in H4 […] Cells. [Related pubchem assays: 1829 (Project Summary), 1814 (Primary HTS)]; type: functional
H4 = assay: Luminescence Cell-Based Dose Response HTS to Identify Activators of 5'UTR Stem-Loop Driven Prion Protein mRNA Translation in H4 Neuroglioblastoma Cells. [Related pubchem assays: 1829 (Project Summary), 1814 (Primary HTS)]; type: functional; conditions: Homo sapiens
[4] = biological target: T1, Heat shock factor protein 1 (Mus musculus, UniProt P38532); assay: enhancement of HSF1-driven luciferase signal – cell-based, NIH3T3, luminescence, dose retest, confirmation (AID 435004); type: functional;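 note: stress induced by proteasome inhibitor MG132 added 30 min after compound; luciferase reporter driven by HSF1 response element in NIH3T3 cells; actives raise luminescence as potentiators of the MG132 stress response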
T1 sequence (P38532 whole entry): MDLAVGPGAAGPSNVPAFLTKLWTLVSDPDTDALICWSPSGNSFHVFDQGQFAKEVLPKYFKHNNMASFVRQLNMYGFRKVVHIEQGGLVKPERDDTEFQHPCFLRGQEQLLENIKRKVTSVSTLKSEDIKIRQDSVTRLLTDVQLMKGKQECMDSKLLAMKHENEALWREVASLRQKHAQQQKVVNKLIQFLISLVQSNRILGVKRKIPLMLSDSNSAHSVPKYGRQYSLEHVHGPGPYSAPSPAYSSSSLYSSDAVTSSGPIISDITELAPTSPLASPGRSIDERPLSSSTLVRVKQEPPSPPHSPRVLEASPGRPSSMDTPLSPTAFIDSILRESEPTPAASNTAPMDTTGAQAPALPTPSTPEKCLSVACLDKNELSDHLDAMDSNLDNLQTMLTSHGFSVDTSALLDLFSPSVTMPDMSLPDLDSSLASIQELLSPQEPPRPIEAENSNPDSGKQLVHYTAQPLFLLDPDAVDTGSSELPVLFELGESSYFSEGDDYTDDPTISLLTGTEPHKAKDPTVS

[5] = Trypanosoma cruzi growth suppression in host cells – NIH3T3 host cells, beta-gal luminescence, confirmation (AID 2044); type: functional, cell-based;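 note: intracellular parasites grown in NIH/3T3 mouse fibroblasts as host cells; luminescent beta-galactosidase reporter signal from transgenic T. cruzi replicating inside host cells; inhibitors lower the luminescence signal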
[6] = NIH3T3 cell viability loss – ATP luminescence, mouse fibroblasts, counter-screen, dose response (AID 2010); type: functional, cell-based;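 note: cells exposed to compound for about 90 hours before reading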
[7] = biological target: T2, Replicative DNA helicase DnaB (Mycobacterium tuberculosis, UniProt P9WMR3); assay: DnaB intein splicing inhibitors, dose response, biochemical, cell-free fluorescence (AID 449749); type: functional
T2 sequence (P9WMR3 whole entry): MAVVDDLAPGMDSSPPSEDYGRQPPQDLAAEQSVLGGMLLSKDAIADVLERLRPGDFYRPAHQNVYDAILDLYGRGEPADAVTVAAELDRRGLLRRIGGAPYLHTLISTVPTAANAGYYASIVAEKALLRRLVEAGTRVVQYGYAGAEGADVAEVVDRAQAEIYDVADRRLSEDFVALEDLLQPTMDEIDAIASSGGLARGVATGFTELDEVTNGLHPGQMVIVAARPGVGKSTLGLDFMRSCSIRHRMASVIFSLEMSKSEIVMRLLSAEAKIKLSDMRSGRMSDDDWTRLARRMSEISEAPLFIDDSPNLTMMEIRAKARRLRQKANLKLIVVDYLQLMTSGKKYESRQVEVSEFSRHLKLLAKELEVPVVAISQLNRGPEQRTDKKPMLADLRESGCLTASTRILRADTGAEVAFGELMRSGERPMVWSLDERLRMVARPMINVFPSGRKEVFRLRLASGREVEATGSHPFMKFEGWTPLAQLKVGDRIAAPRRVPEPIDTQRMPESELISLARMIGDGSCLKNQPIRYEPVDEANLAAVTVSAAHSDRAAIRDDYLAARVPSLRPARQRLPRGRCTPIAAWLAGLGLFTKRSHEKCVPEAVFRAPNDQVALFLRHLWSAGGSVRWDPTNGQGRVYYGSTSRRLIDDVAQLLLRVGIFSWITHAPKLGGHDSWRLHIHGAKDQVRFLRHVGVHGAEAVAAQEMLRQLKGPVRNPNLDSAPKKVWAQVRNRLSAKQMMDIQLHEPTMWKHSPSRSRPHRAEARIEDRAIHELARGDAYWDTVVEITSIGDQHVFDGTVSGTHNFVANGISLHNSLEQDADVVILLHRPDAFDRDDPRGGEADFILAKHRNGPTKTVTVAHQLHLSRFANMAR

Protein RecA = biological target: T3, Protein RecA (Mycobacterium tuberculosis, UniProt P9WHJ3); assay: Fluorescence Cell-Free Homogeneous Dose Retest to Identify Inhibitors of RecA-Intein Splicing Activity. [Related pubchem assays (depositor defined):AID2097, AID2223, AID489010, AID492950]; type: functional
T3 sequence (P9WHJ3 whole entry): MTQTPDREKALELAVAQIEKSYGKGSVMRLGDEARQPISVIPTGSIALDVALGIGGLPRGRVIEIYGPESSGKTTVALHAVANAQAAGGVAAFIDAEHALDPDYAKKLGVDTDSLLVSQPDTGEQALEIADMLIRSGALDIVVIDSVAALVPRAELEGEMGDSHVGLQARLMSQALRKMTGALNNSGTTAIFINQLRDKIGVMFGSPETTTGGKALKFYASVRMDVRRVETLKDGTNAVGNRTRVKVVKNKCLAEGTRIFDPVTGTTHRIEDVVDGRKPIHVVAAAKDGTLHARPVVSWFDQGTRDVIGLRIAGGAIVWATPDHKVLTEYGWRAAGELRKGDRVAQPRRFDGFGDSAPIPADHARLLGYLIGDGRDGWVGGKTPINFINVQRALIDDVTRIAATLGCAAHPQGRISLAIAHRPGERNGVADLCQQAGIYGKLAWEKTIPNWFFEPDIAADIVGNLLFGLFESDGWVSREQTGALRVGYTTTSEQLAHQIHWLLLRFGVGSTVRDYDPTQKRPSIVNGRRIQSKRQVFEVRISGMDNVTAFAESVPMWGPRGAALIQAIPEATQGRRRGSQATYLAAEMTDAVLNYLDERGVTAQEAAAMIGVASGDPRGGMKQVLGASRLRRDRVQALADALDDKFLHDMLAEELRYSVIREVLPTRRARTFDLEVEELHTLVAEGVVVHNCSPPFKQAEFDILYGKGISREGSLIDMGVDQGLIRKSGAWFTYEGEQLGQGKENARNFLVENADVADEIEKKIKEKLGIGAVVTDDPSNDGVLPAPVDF

[8] = viability of uninfected HEp-2 cells – cell-based, HTS, cytotoxicity control for RSV inhibitor project, dose response (AID 2410); type: functional; conditions: human respiratory syncytial virus
[9] = Luminescence Cell-Based Dose Retest to Confirm Inhibitors of Cancer Stem Cells. [Related pubchem assays (depositor defined):AID2717, AID2721]; type: functional; conditions: Homo sapiens
[10] = reduction of Shn3 3'UTR-driven luciferase in osteoblasts – cell-based, Clone20 osteoblasts, firefly luciferase, cherry-picked, dose response (AID 624132); type: functional;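 note: firefly luciferase luminescence from reporter carrying the Shn3 3'UTR in osteoblasts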
[11] = non-specific 3'UTR reporter inhibition in Clone20-Shn3RL – cell-based, Renilla luciferase, cherry-picked, counter-screen for Shn3 inhibitor project, dose response (AID 624133); type: functional
Protein skinhead-1 = biological target: T4, Protein skinhead-1 (Caenorhabditis elegans, UniProt P34707); type: functional
T4 sequence (P34707 whole entry): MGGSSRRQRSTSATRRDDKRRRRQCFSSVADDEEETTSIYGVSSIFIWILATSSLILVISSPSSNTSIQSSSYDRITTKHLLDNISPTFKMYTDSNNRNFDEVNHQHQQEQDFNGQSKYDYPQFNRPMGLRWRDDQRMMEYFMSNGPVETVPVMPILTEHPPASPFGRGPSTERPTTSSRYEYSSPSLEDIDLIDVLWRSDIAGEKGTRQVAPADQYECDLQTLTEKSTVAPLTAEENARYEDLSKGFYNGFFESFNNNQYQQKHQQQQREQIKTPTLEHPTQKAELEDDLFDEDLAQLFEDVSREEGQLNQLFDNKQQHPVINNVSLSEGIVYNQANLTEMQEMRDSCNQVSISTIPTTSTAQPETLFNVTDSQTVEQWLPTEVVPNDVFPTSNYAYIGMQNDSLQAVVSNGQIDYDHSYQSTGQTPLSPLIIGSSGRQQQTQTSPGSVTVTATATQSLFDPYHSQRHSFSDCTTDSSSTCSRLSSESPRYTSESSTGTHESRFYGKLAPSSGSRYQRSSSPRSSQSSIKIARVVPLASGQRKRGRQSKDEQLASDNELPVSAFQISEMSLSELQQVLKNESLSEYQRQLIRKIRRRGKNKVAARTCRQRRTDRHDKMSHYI

[12] = blockers of HIV-1 envelope-mediated cell-cell fusion – cherry-pick, dose response (AID 652057); type: functional, cell-based
Cytochrome P450 3A4 = Cytochrome P450 3A4 (Homo sapiens, UniProt P08684);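 note: CYP3A4 tested as one member of a cytochrome P450 panel screen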
Chain of Cytochrome P450 3A4 (P08684 whole entry): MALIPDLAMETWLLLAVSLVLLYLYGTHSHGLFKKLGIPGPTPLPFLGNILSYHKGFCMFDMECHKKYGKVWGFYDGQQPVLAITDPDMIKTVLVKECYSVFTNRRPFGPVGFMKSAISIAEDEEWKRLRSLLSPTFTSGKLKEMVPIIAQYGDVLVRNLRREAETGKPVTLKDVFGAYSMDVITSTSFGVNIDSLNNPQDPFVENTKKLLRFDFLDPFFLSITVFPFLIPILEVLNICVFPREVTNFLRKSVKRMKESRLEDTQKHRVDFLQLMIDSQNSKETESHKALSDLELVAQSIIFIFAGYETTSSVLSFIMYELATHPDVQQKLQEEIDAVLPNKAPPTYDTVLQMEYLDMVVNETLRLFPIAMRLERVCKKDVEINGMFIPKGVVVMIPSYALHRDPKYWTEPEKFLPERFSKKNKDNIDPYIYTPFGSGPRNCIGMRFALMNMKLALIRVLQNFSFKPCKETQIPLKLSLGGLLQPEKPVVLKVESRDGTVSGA

Cytochrome P450 2C9 = Cytochrome P450 2C9 (Homo sapiens, UniProt P11712)
Chain of Cytochrome P450 2C9 (P11712 whole entry): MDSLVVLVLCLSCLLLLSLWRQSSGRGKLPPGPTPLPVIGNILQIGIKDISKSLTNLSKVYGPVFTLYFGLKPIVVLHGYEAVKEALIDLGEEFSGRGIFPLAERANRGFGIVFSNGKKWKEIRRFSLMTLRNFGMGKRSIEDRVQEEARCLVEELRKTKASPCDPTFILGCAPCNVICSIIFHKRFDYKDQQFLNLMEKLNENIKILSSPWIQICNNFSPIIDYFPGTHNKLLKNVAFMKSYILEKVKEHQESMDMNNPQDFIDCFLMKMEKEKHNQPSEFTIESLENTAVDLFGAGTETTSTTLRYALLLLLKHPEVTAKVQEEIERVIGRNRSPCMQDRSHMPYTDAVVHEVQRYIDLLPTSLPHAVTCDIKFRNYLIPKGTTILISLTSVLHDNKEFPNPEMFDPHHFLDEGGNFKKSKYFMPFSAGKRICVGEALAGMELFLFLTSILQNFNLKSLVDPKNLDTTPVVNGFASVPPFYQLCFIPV

COc1ccc(/C=N/OCC(=O)Nc2nc3ccccc3s2)cc1
EC50 [1]: > 150 µM (inactive)
EC50 [2]: 4.97 µM (active)

CCCn1c(C)cc(C(=O)CSc2nc3ccccc3c(=O)n2Cc2ccco2)c1C
EC50 [3]: 0.112 µM (active)
EC50 (H4): 5 µM (active)

CC12CCC(=O)N1C(C(=O)Nc1cccc3ccccc13)CS2 (stereo unspecified)
EC50 [4]: > 260 µM (inactive)

CCC(=O)Nc1ccc2nn(-c3ccc(F)cc3)nc2c1
EC50 [5]: 4.4 µM (active)
EC50 [6]: > 60 µM (not active)
EC50 [4]: > 260 µM (inactive)

COc1ccc(CC(=O)O/N=C(\N)Cc2cccc3ccccc23)cc1OC
AC50 [7]: 73.3 µM (active)
EC50 (Protein RecA): 18.2 µM (active)

CCCCNc1nc(Nc2ccc(C)c(Cl)c2)c2cnn(C)c2n1
CC50 [8]: 6.78 µM (active)
AC50 [9]: 9.2 µM (active)
EC50 [4]: > 260 µM (inactive)

N#CC1=C(N)N(c2ccccc2)C(c2ccccc2)C1(C#N)C#N (stereo unspecified)
AC50 [7]: 7.51 µM (active)
EC50 (Protein RecA): 11.6 µM (active)

CCCNC(=O)c1ccc2c(O)c(O)c(-c3ccc(OC)cc3)nc2c1
EC50 [1]: > 150 µM (inactive)
EC50 [2]: > 38 µM (not active)

O=C1CC2(CCN(C(=O)c3ccccc3F)CC2)Oc2ccccc21
AC50 [10]: 65.8 µM (active)
AC50 [11]: 30.8 µM (active)

Cc1cc2cc(CNC(=O)c3cccc([N+](=O)[O-])c3)ccc2n1C
IC50 (Protein skinhead-1): > 100 µM (inactive)

CCCOc1ccc(C(=O)C2=C(O)C(=O)N(c3cc(C)on3)C2c2ccc(C(=O)OC)cc2)cc1 (stereo unspecified)
IC50 (Protein skinhead-1): > 100 µM (inactive)

O=C1NC(=O)[C@]2(Cc3ccccc3N3CCN(c4ccccc4)CC32)C(=O)N1Cc1ccccc1 (stereo partly specified)
EC50 [4]: > 260 µM (inactive)

O=C(Oc1ccc(N2C(=O)C3C4CCC(C4)C3C2=O)cc1)c1ccco1 (stereo unspecified)
AC50 [7]: 28.2 µM (active)
EC50 (Protein RecA): 13 µM (active)

COc1ccc(S(=O)(=O)N(C)C[C@H]2Oc3cc(C4=CCCC4)ccc3S(=O)(=O)N([C@@H](C)CO)C[C@H]2C)cc1
AC50 [12]: 16.4 µM (active)

N#Cc1ccccc1OCC(O)CS(=O)(=O)c1ccccc1 (stereo unspecified)
IC50 (Protein skinhead-1): > 100 µM (inactive)

Cn1c(Sc2ccc(C(F)(F)F)cc2[N+](=O)[O-])nnc1-c1ccccc1
EC50 [4]: > 260 µM (inactive)

CCC(C)Nc1nc(Cl)nc(N(C#N)CN2C(=O)c3ccccc3S2(=O)=O)n1 (stereo unspecified)
AC50 [7]: 14 µM (active)
EC50 (Protein RecA): 18.2 µM (active)

CC(=O)Nc1ccc2c(c1)Cc1c-2cc(Br)c(N)c1Br
IC50 (Protein skinhead-1): > 100 µM (inactive)

Cc1nc(-c2cccc(NC(=O)c3ccco3)c2)cs1
IC50 (Protein skinhead-1): > 100 µM (inactive)

Clc1ccc(-c2cc(CSc3ccccc3)on2)cc1
IC50 (Protein skinhead-1): 20 µM (active)

Cn1c(CN2CCN(C(=O)c3ccc(F)cc3)CC2)nc2cc([N+](=O)[O-])ccc21
EC50 [4]: > 260 µM (inactive)

CCCc1cc2nnc(SCC(=O)N(C)C3CCCCC3)n2c(N)n1
IC50 (Protein skinhead-1): > 100 µM (inactive)

Cc1ccc(C(=O)/C=C/c2ccc(-c3ccc(C)cc3)o2)cc1
AC50 [10]: 2.79 µM (active)
AC50 [11]: 14.3 µM (active)

Cc1ccc(CNC(=O)c2cn(C3CCCCC3)c(=O)c3c2c2ccccc2n3C)o1
CC50 [8]: 23.3 µM (active)
EC50 [4]: 51.7 µM (active)

Cc1cc(-c2ccccc2)nc2cc(C(=O)N(Cc3ccccc3)Cc3ccccc3)nn12
AC50 [9]: 4.86 µM (active)
AC50 [7]: > 120 µM (inactive)
EC50 (Protein RecA): > 380 µM (inactive)

CC(C)(C)c1ccc(C2=CSC3=NCCN23)cc1
IC50 (Protein skinhead-1): > 100 µM (inactive)

CCn1c(C)nc2cc(C(=O)N/N=C/c3cccc(OC)c3O)ccc21
EC50 [1]: 16.2 µM (active)
EC50 [2]: > 38 µM (not active)
AC50 [9]: 8.16 µM (active)

CCOCCCNC(=O)c1ccc(N(C)S(=O)(=O)c2ccc(OC)cc2)cc1
EC50 [1]: > 160 µM (inactive)
EC50 [2]: > 38 µM (not active)

Cc1cc(C)n(CC(O)COc2ccc(Cl)cc2Cl)n1 (stereo unspecified)
EC50 [4]: 116 µM (active)

COc1ccc(C(C(=O)NC2CCCC2)N(C(=O)c2snc(-c3ccc(F)cc3)c2N)c2ccc(F)cc2)cc1 (stereo unspecified)
IC50 (Protein skinhead-1): > 100 µM (inactive)
AC50 (Cytochrome P450 3A4): 12.6 µM (inconclusive)
AC50 (Cytochrome P450 2C9): 1.78 µM (inconclusive)
